Holding throughout (type): cell-based
Assay [1] has as its system Mannheimia haemolytica MH 6357 (M7/2, reference strain, cattle infection strain). The experiment in a line: MIC, broth-microdilution (CLSI VET01-A4), strain MH 6357. The settings on record: Mannheimia haemolytica strain MH 6357, broth-microdilution; unit assumed. The procedure, abridged:
(§1)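 Doubling dilution series in trays; visual read, MIC = lowest conc. with no visible turbidity; interpretation per CLSI VET01-S3.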

Assay [2] relates to Mannheimia haemolytica MH 6374 (ATCC 33396, reference strain). The experiment in a line: MIC, broth-microdilution (CLSI VET01-A4), strain MH 6374. To be noted: Mannheimia haemolytica strain MH 6374, broth-microdilution; unit assumed. Summed up: as §1
The subject of assay [3] is Mannheimia haemolytica MH 10720 (154, BRD field isolate). Put plainly: MIC, broth-microdilution (CLSI VET01-A4), strain MH 10720. To be noted: Mannheimia haemolytica strain MH 10720, broth-microdilution; unit assumed. Summed up: as §1
Assay [4] relates to Mannheimia haemolytica MH 12587 (1071, BRD field isolate, macrolide-resistance: erm+, E+). The experiment in a line: MIC, broth-microdilution (CLSI VET01-A4), strain MH 12587. To be noted: Mannheimia haemolytica strain MH 12587, broth-microdilution; unit assumed. Summed up:
as §1
Background: Broth dilution looks for growth in wells or tubes with falling amounts of substance.

Assay [5] has as its system Mannheimia haemolytica MH 13065 (XB0446-6003.9, BRD field isolate). Put plainly: MIC, broth-microdilution (CLSI VET01-A4), strain MH 13065. The settings on record: Mannheimia haemolytica strain MH 13065, broth-microdilution; unit assumed. Summed up:
as §1

Assay [6] has as its system Mannheimia haemolytica MH 13093 (XB0472-6014.1, BRD field isolate). Put plainly: MIC, broth-microdilution (CLSI VET01-A4), strain MH 13093. The settings on record: Mannheimia haemolytica strain MH 13093, broth-microdilution; unit assumed. The procedure, abridged: as §1
The subject of assay [7] is Pasteurella multocida PM 6267 (P 2225 (L386), reference strain, mouse infection strain). Put plainly: MIC, broth-microdilution (CLSI VET01-A4), strain PM 6267. The settings on record: Pasteurella multocida strain PM 6267, broth-microdilution; unit assumed. Summed up: as §1
Assay [8] deals with Pasteurella multocida PM 6391 (ATCC 43137, reference strain). The experiment in a line: MIC, broth-microdilution (CLSI VET01-A4), strain PM 6391. To be noted: Pasteurella multocida strain PM 6391, broth-microdilution; unit assumed. The procedure, abridged:
as §1

Assay [9] relates to Pasteurella multocida PM 10775 (080130003051, BRD field isolate). Put plainly: MIC, broth-microdilution (CLSI VET01-A4), strain PM 10775. The settings on record: Pasteurella multocida strain PM 10775, broth-microdilution; unit assumed. The procedure, abridged:
as §1

In assay [10] the test system is Pasteurella multocida PM 12080 (IV102277-0093, BRD field isolate). The experiment in a line: MIC, broth-microdilution (CLSI VET01-A4), strain PM 12080. To be noted: Pasteurella multocida strain PM 12080, broth-microdilution; unit assumed. Summed up: as §1

The results in this text go back to patent US11034650B2, “Compounds useful for treating a Mannheimia haemolytica or Histophilus somni infection” (Intervet Inc., priority 2016, dated 2021).

Values after ≈ are worked out from the molar mass of the structure shown.

For `CC(C)(C(NC(=O)c1ccc(C#Cc2ccc(CNCc3ccco3)cc2)cc1)C(=O)NO)[N+](=O)[O-]` (centres unmarked) [Compound 287], the MIC MH 6357 in assay [1] worked out at 0.4 µg/mL (≈ 0.815 µM). This molecule also gave an MIC MH 6374 in assay [2] of 0.8 µg/mL (≈ 1.63 µM). Also, in assay [3], the MIC MH 10720 is at most 0.1 µg/mL. In [4], this molecule had an MIC MH 12587 of 1.6 µg/mL (≈ 3.26 µM). The MIC MH 13065 in assay [5] was 0.8 µg/mL (≈ 1.63 µM). For the same molecule, the MIC MH 13093 in [6] was determined as 0.8 µg/mL (≈ 1.63 µM). In [7], this molecule showed an MIC PM 6267 of 0.8 µg/mL (≈ 1.63 µM). In addition, in [8], the MIC PM 6391 came out at 0.4 µg/mL (≈ 0.815 µM). For the same molecule, the MIC PM 10775 in assay [9] was at most 0.1 µg/mL. In assay [10], this molecule returned an MIC PM 12080 of at most 0.1 µg/mL.

In turn, `COCC(C)NCc1ccc(C#Cc2ccc(C(=O)N[C@H](C(=O)NO)C(C)C)cc2)cc1` (some centres unmarked) [Compound 198] gave an MIC MH 6357 in assay [1] of 3.1 µg/mL (≈ 7.09 µM). Further, in [2], the MIC MH 6374 was 6.3 µg/mL (≈ 14.4 µM). Besides, the MIC MH 10720 in assay [3] was 0.8 µg/mL (≈ 1.83 µM). Further, in assay [4], the MIC MH 12587 came to 12.5 µg/mL (≈ 28.6 µM). The same molecule had an MIC MH 13065 in [5] of 3.1 µg/mL (≈ 7.09 µM). Further, the MIC MH 13093 in [6] stood at 6.3 µg/mL (≈ 14.4 µM). In assay [7], this molecule registered an MIC PM 6267 of at most 0.1 µg/mL. For the same molecule, the MIC PM 6391 in assay [8] was 0.4 µg/mL (≈ 0.914 µM). Also, the MIC PM 10775 in [9] was at most 0.1 µg/mL. The same molecule gave an MIC PM 12080 in [10] of 0.2 µg/mL (≈ 0.457 µM).

The molecule `COCCCNCc1ccc(C#Cc2ccc(C(=O)NC(C(=O)NO)C(C)(C)[N+](=O)[O-])cc2)cc1` (centres unmarked) [Compound 285] gave an MIC MH 6357 in assay [1] of 1.6 µg/mL (≈ 3.32 µM). The MIC MH 6374 in [2] was 3.1 µg/mL (≈ 6.42 µM). Further, the MIC MH 10720 in assay [3] is at most 0.1 µg/mL. The MIC MH 12587 in assay [4] was 6.3 µg/mL (≈ 13.1 µM). The molecule further showed an MIC MH 13065 in assay [5] of 1.6 µg/mL (≈ 3.32 µM). In [6], this molecule showed an MIC MH 13093 of 3.1 µg/mL (≈ 6.42 µM). In addition, the MIC PM 6267 in assay [7] amounted to 3.1 µg/mL (≈ 6.42 µM). In [8], this molecule displayed an MIC PM 6391 of 1.6 µg/mL (≈ 3.32 µM). In assay [9], this molecule yielded an MIC PM 10775 of at most 0.1 µg/mL. Moreover, the MIC PM 12080 in assay [10] was found to be 0.8 µg/mL (≈ 1.66 µM).

On to `C=CCNCc1ccc(C#Cc2ccc(C(=O)N[C@H](C(=O)NO)C(C)(C)O)cc2)s1` [Compound 291], for which the MIC MH 6357 in assay [1] was at most 0.1 µg/mL. Besides, the MIC MH 6374 in assay [2] was at most 0.1 µg/mL. For the same molecule, the MIC MH 10720 in [3] is at most 0.1 µg/mL. The same molecule came in with an MIC MH 12587 in [4] of 0.8 µg/mL (≈ 1.87 µM). The molecule further returned an MIC MH 13065 in assay [5] of 0.4 µg/mL (≈ 0.936 µM). Besides, in assay [6], the MIC MH 13093 stood at 0.4 µg/mL (≈ 0.936 µM). In [7], the MIC PM 6267 amounted to 0.8 µg/mL (≈ 1.87 µM). This molecule gave an MIC PM 6391 in assay [8] of 0.4 µg/mL (≈ 0.936 µM). In addition, the MIC PM 10775 in assay [9] is at most 0.1 µg/mL. The same molecule registered an MIC PM 12080 in assay [10] of at most 0.1 µg/mL.

Regarding `CC(=O)C(NC(=O)c1ccc(C#Cc2ccc(CNCC3CCCO3)cc2)cc1)C(=O)NO` (centres unmarked) [Compound 413], the MIC MH 6357 in assay [1] was 12.5 µg/mL (≈ 27.8 µM). The same molecule returned an MIC MH 6374 in assay [2] of 12.5 µg/mL (≈ 27.8 µM). This molecule had an MIC MH 10720 in [3] of 3.1 µg/mL (≈ 6.9 µM). Further, the MIC MH 12587 in assay [4] was 6.3 µg/mL (≈ 14 µM). The molecule further yielded an MIC MH 13065 in assay [5] of 6.3 µg/mL (≈ 14 µM). The MIC MH 13093 in [6] is 25 µg/mL (≈ 55.6 µM). The same molecule came in with an MIC PM 6267 in [7] of 50 µg/mL (≈ 111 µM). Besides, the MIC PM 6391 in assay [8] was found to be 0.2 µg/mL (≈ 0.445 µM). In assay [9], this molecule had an MIC PM 10775 of 0.4 µg/mL (≈ 0.89 µM). The molecule further returned an MIC PM 12080 in [10] of 0.4 µg/mL (≈ 0.89 µM).

On to `CC(C)([C@H](NC(=O)c1ccc(C#Cc2ccc(CNCC(F)(F)F)nc2)cc1)C(=O)NO)S(C)(=O)=O` [Compound 355], for which, in [1], the MIC MH 6357 stood at 0.8 µg/mL (≈ 1.52 µM). The MIC MH 6374 in [2] amounted to 1.6 µg/mL (≈ 3.04 µM). This molecule displayed an MIC MH 10720 in [3] of at most 0.1 µg/mL. The molecule further registered an MIC MH 12587 in assay [4] of 1.6 µg/mL (≈ 3.04 µM). Besides, the MIC MH 13065 in assay [5] was found to be 0.8 µg/mL (≈ 1.52 µM). Moreover, the MIC MH 13093 in [6] is 1.6 µg/mL (≈ 3.04 µM). Also, the MIC PM 6267 in assay [7] came out at 0.8 µg/mL (≈ 1.52 µM). This molecule yielded an MIC PM 6391 in [8] of 0.2 µg/mL (≈ 0.38 µM). Further, the MIC PM 10775 in [9] was at most 0.1 µg/mL. Moreover, the MIC PM 12080 in assay [10] was at most 0.1 µg/mL.

In assay [1], `CC(C)(O)[C@H](NC(=O)c1ccc(C#Cc2ccc(CN3CCOCC3)nc2)cc1)C(=O)NO` [Compound 326] yielded an MIC MH 6357 of 3.1 µg/mL (≈ 6.85 µM). Moreover, the MIC MH 6374 in assay [2] came out at 6.3 µg/mL (≈ 13.9 µM). The molecule also came in with an MIC MH 10720 in [3] of 0.8 µg/mL (≈ 1.77 µM). The MIC MH 12587 in assay [4] came out at 12.5 µg/mL (≈ 27.6 µM). Further, the MIC MH 13065 in assay [5] came out at 3.1 µg/mL (≈ 6.85 µM). In [6], this molecule had an MIC MH 13093 of 6.3 µg/mL (≈ 13.9 µM). This molecule also returned an MIC PM 6267 in [7] of 3.1 µg/mL (≈ 6.85 µM). Besides, in assay [8], the MIC PM 6391 is 0.4 µg/mL (≈ 0.884 µM). Also, in assay [9], the MIC PM 10775 is at most 0.1 µg/mL. The molecule also showed an MIC PM 12080 in assay [10] of 0.4 µg/mL (≈ 0.884 µM).

Turning to `COCCNCc1ccc(C#Cc2ccc(C(=O)N[C@H](C(=O)NO)C(C)(C)S(C)(=O)=O)cc2)cn1` [Compound 349], the MIC MH 6357 in assay [1] was found to be 1.6 µg/mL (≈ 3.18 µM). This molecule showed an MIC MH 6374 in assay [2] of 3.1 µg/mL (≈ 6.17 µM). Moreover, the MIC MH 10720 in assay [3] turned out to be 0.8 µg/mL (≈ 1.59 µM). Further, in assay [4], the MIC MH 12587 is 6.3 µg/mL (≈ 12.5 µM). Moreover, the MIC MH 13065 in assay [5] worked out at 6.3 µg/mL (≈ 12.5 µM). For the same molecule, the MIC MH 13093 in [6] was found to be 3.1 µg/mL (≈ 6.17 µM). In assay [7], the MIC PM 6267 stood at 1.6 µg/mL (≈ 3.18 µM). In addition, the MIC PM 6391 in assay [8] was found to be 0.8 µg/mL (≈ 1.59 µM). This molecule also registered an MIC PM 10775 in [9] of at most 0.1 µg/mL. This molecule yielded an MIC PM 12080 in assay [10] of 0.4 µg/mL (≈ 0.796 µM).
